Assay results from patent US11453674B2, “Heterocyclic compound, preparation method and use thereof in medicine” (SUZHOU SINOVENT PHARMACEUTICALS CO., LTD., priority 2019, dated 2022).

Assays:
[1] = test system: primary human hepatocytes; assay: Cytotoxicity assay on primary human hepatocytes (CellTiter-Glo, 48 h); format: cell-based; conditions: Hepatocyte, cell viability, 48 h incubation
Description: Example 26: Cytotoxicity Assay of Compounds on Primary Human Hepatocytes
Primary human hepatocytes were purchased from Biorecamation IVT. Co., Ltd. (lot no.: AKB/S1391); the components of in vitro culture media of primary human cell and suppliers are as follows:
1. Frozen primary human hepatocytes were thawed, then resuspended in a culture medium containing 10% FBS. The cells were transferred into a 96-well plate, at 8×10^4 cells/well, followed by incubating overnight in an incubator at 5% CO2 at 37° C.;
2. […] The test compounds and control drug were added to wells, at 100 μL/well, to form test compound wells or reference wells, and the culture medium containing 10% FBS was added to wells, at 100 μL/well, as negative control. The cells were incubated in an incubator in the presence of 5% CO2 at 37° C. for 48 h.
3. The primary human hepatocytes were washed with PBS (0.1 M, pH=7.4) twice, and were added with CellTiter-Glo reagent at 100 μL/well. Cell-free wells added with CellTiter-Glo reagent at 100 μL/well served as the blank control. The 96-well plate was shaken on a shaker for 5 min, and then left at room temperature for 10 min.
4. The chemiluminescence values were detected using Victor X4 (Perkin Elmer). The chemiluminescence values of the test compound wells were denoted as F(test compound), the chemiluminescence values of the blank control wells were denoted as F(blank), and the chemiluminescence values of the negative control wells were denoted as F(negative control). The cell viabilities at different concentrations were calculated according to the following formula. Each concentration was measured in triplicate to give the average and the standard deviation.
5. The half maximal inhibitory concentration (IC50) of the test compounds to the primary human hepatocytes were calculated using Prism Graph software.

hURAT1 = biological target: T1, hURAT1 (Homo sapiens, UniProt Q96S37); assay: Inhibition of 14C-uric acid uptake by hURAT1 in HEK293-transfected cells; format: cell-based; conditions: HEK-293T cells stably expressing hURAT1, 14C-uric acid uptake, 5 min at 37° C.
T1 construct: expressed in transfected cells
T1 sequence (Q96S37 1-553): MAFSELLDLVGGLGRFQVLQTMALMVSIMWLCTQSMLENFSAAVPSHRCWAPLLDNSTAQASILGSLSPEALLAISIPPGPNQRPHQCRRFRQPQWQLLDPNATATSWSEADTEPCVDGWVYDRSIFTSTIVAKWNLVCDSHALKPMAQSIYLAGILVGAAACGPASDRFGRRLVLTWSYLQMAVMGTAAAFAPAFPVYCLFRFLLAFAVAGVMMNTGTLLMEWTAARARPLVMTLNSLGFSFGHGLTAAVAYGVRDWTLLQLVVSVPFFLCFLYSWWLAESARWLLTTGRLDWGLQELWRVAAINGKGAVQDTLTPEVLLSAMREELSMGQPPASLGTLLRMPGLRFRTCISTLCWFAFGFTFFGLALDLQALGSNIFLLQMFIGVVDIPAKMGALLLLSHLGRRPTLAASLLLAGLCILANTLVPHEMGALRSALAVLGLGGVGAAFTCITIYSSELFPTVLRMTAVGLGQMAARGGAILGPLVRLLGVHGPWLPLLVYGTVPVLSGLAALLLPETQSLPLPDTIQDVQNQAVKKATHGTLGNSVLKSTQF
Description: 1. Cell Culture and Inoculation
2) When the cells covered 80% of the culture medium, the culture medium was removed. The cells were washed with PBS once, followed by digestion with pancreatin-EDTA. After detachment, the cells were added with a culture medium, exfoliated by pipetting, and centrifuged for harvesting. The harvested cells were added with a culture medium and mixed well to give a cell suspension.
3) The cell density was adjusted to 3×10^5 cells/mL, transferred into a white-wall, clear-bottom, 96-well cell culture plate with 100 μL/well, and incubated for 12-24 h.
1) A 20 mM stock solution of the compound was prepared with DMSO. Then the stock solution was diluted to a starting concentration of 2 mM with DMSO.
2) The solution was serially 4-fold diluted with DMSO from […] to the 10th concentration on a 96-well plate serving as the 100× plate, and respective quality controls were prepared.
3) The solutions in corresponding wells were 10-fold diluted with Cl-free HBSS buffer on another 96-well plate serving as the 10× plate.
4) Buffer containing 0.1 μCi/mL ^14C-uric acid, at 45 μL/well, and a 10× diluted compound, at 5 μL/well, were added to a third 96-well plate serving as the 1× plate for later use. The concentration of DMSO was 1%.
3. Uptake of ^14C-Uric Acid in Cells Stably Expressing hURAT1
1) The uptake assay was performed after the cultivated cells in 96-well plates adhered.
2) The cells were washed once with pre-heated buffer at 200 μL/well.
3) After the wells were dried, corresponding compounds (50 μL/well) and 0.1 μCi/mL ^14C-uric acid were immediately added.
4) The plate with the compound was incubated in a 37° C. incubator for 5 min.
5) 150 μL of ice-cold buffer was added to each well to terminate the uptake. Each well was washed three times with buffer. The cells were carefully washed to avoid detachment.
6) 50 μL of lysis buffer was added to each well, prior to shaking at 900 rpm on an oscillator for 5 min.
7) 150 μL of scintillation solution (Microint 40) was added to each well before shaking at 900 rpm for 5 min.
8) Finally, the microwell plate was transferred to a MicroBeta Trilux (PerkinElmer Co. Ltd.) for detection.
The data were analyzed and the IC50 of the quality controls and all test compounds on the plates were calculated using XL-fit software.

CCc1oc2ccccc2c1C(=O)c1cc(Br)c(O)c(Br)c1 [Benzbromarone, reference compound]
IC50 [1]: 6650 nM

CCc1oc2ccncc2c1C(=O)c1cc(Br)c(O)c(Br)c1 [Example 1, (3,5-dibromo-4-hydroxyphenyl)(2-ethylfuro[3,2-c]pyridin-3-yl) methanone]
IC50 (hURAT1): < 50 nM

CCn1nc2ccc(F)cc2c1C(=O)c1cc(Br)c(O)c(Br)n1 [Example 8, (4,6-dibromo-5-hydroxypyridin-2-yl)(2-ethyl-5-fluoro-2H-indazol-3-yl)methanone]
IC50 (hURAT1): 50 to 200 nM
